Consider 5 compounds from patent US20100093613A1, “METHODS FOR IDENTIFYING AGENTS AND THEIR USE FOR THE PREVENTION OR STABILIZATION OF FIBROSIS” (priority 2007, published 2010).

The subject of experiment [1] is Bronchial epithelial cells. Description: BioMAP BE3C system (IL-1β + TNF-α + IFN-γ), scoring of readout parameters. The experiment is classed as cell-based, human. Particulars: for PAI-1 score: desired change decrease. The text has this: (§1) Each screened compound is scored according to its modulation of the selected readout parameters. Compounds receive a positive score (score of 1) or negative score (score of 0) for each readout parameter set forth in Table 2 that is modulated in the desired direction. […] Parameters may be penalized by making the positive score a −1 for parameters where regulation is opposite to the desired direction.
(§2) Cell culture. Human umbilical vein endothelial cells (HUVEC) were pooled from multiple donors, cultured according to standard methods, and plated into microtiter plates at passage 4. Cell culture medium for all systems containing HUVEC included hydrocortisone. Coronary artery smooth muscle cells (CASM3C) and umbilical artery smooth muscle cells (HSM3C) were cultured according to standard procedures. Peripheral blood mononuclear cells (PBMC) were prepared from buffy coats from normal human donors according to standard methods. Monocyte-derived macrophages were differentiated in the presence of M-CSF for 7 d according to standard procedures. Human dermal fibroblasts were pooled from 3 donors, cultured according to standard methods, and plated confluent 24 h before stimulation. Cell culture medium for all systems containing fibroblasts and keratinocytes contained low hydrocortisone. Epidermal keratinocytes and bronchial epithelial cells from 3 donors were cultured according to standard procedures and pooled when plated into microtiter plates. For keratinocyte-fibroblast co-cultures, cells were plated simultaneously 24 h before stimulation. For bronchial epithelial cell-fibroblast co-cultures, fibroblasts were plated and cultured 48 before addition of epithelial cells, then cultured another 24 hr before stimulation. Concentrations/amounts of agents added to confluent microtiter plates to build each system: cytokines (IL-1β, 1 ng/ml; TNF-α, 5 ng/ml; IFN-γ, 20 ng/ml; IL-4, 5 ng/ml), activators (SAg, 20 ng/ml; histamine, 10 μM; zymosan, 10 μg/ml; or LPS, 2 ng/ml), growth factors (TGF-β, 5 ng/ml; EGF, bFGF, and PDGF-BB, 10 ng/ml), and PBMC (7.5×10^4 cells/well) or macrophages (3.5×10^4 cells/well).
(§3) Compounds. Compounds were prepared in the solvent directed, added 1 hr before stimulation of the cells, and were present during the 24 hr stimulation period for the measurement of parameters listed in Table 2. For proliferation, compounds added 1 hr before stimulation of the cells with cytokines, and were present during the 48 to 72 hr assay. If prepared in DMSO, the final concentration of solvent was 0.1% or less.
(§4) Readout Parameter Measurements. The levels of readout parameters were measured by ELISA. Briefly, microtiter plates are treated, blocked, and then incubated with primary antibodies or isotype control antibodies (0.01-0.5 microg/ml) for 1 hr. After washing, plates were incubated with a peroxidase-conjugated anti-mouse IgG secondary antibody or a biotin-conjugated anti-mouse IgG antibody for 1 hr followed by streptavidin-HRP for 30 min. Plates were washed and developed with TMB substrate and the absorbance (OD) was read at 450 nm (subtracting the background absorbance at 650 nm). Quantitation of TNF-alpha or PGE2 in the LPS system was done using a commercially available kit according to the manufacturer's directions. Proliferation of endothelial cells (HUVEC and CAEC), smooth muscle cells (SMC and CASMC), and PBMC (T cells) was quantitated by Alamar Blue reduction or SRB.
(§5) Data analysis. Mean OD values for each parameter were calculated for compounds run in duplicate. The mean value (or single well OD value) for each parameter in a treated sample was then divided by the mean value from an appropriate control to generate a ratio. All ratios were then log10 transformed. 95% significance prediction envelopes (grey shading in Figures) were calculated for historical controls.

Experiment [2] relates to Bronchial epithelial cells. The experiment is described as follows: BioMAP BE4T system (IL-4 + TNF-a), scoring of readout parameters. The experiment is classed as cell-based, human. The arrangement: key: 1 = modulated in desired direction, 0 = not (−1 = opposite). Conditions: for PAI-1 score: desired change decrease; for EGFR score: desired no change or increase. On the procedure:
In the “BE4T” system, bronchial epithelial cells, usually primary human bronchial epithelial cells, are cultured in the presence of TNF-α and IL-4.
as §1, §2, §3, §4, §5

The subject of experiment [3] is Fibroblasts. Description: BioMAP HDF3CT system (IL-1β + TNF-α + IFN-γ + TGF-β), scoring of readout parameters. The experiment is classed as cell-based, human.
From the text: as §1, §2, §3, §4, §5

The subject of experiment [4] is Fibroblasts. Description: BioMAP HDFT system (TGF-β), scoring of readout parameters. The experiment is classed as cell-based, human. On the set-up: key to PAI-1 score: 1 = modulated in desired direction, 0 = not (no penalties applied). Particulars: HDFT; desired change decrease.
From the text: as §1
(§6) Compounds were first selected to inhibit PAI-1 in the HDFT as an indication of TBF-b signaling inhibition without being cytotoxic. […] Blank spots in Table 3 were where parameter was not assayed. Penalties were not applied for this scoring.
as §2, §3, §4
Data analysis. Mean OD values for each parameter were calculated for compounds run in duplicate. The mean value (or single well OD value) for each parameter in a treated sample was then divided by the mean value from an appropriate control to generate a ratio.

Experiment [5] has as its system Fibroblasts. The experiment is described as follows: BioMAP HDF3CGF system (IL-1β + TNF-α + IFN-γ + EGF + bFGF + PDGFbb), scoring of readout parameters. The format is cell-based, human. Conditions: for PAI-1 score: desired change decrease; for MMP-1 score: desired change increase; for EGFR score: desired no change or increase.
Protocol: In the “HDF-3CGF” system, dermal fibroblast cells, usually primary human dermal fibroblast cells are cultured alone or in the presence of lung epithelial cells, usually primary human lung epithelial cells, with two or more factors selected from: TNF, IL-1, IFNγ, EGF, bFGF+HSPG (heparan sulfate proteoglycan), and PDGFbb. In some embodiments three or more factors are present, four or more, five or more, or all six factors are present.
Human neonatal dermal fibroblasts (HDFn) or adult lung fibroblasts (HDFp) or fibroblasts from tissues such as liver, heart, or kidney are used. Cells are cultured at 3×10^4 cells/ml in DMEM/F12 (50/50) from Cellgro, supplemented with LSGS kit (from Cascade Biologics); fetal bovine serum, 2% v/v, hydrocortisone 100 nM, human epidermal growth factor 10 ng/ml, basic fibroblast growth factor 3 ng/ml and heparin 10 μg/ml, and penicillin/streptomycin amphotericin B solution (PSA), until confluency. Medium is replaced with DMEM/F12 with only penicillin/streptomycin amphotericin B solution (PSA), then 24 hours later, the following are applied:
After another 24, 48 or 72 hours incubation (37° C., 5% CO2) the cultures are evaluated for the following parameters: ICAM, VCAM, CD40, CD90, IP-10, MCP-1, Collagen I, Mig, m-CSF, TIMP-2, PAI-I, IL-8, Collagen III, HLA-DR, MMP-1, MMP-9, proliferation, TGF-b1, eotaxin-3, decorin, alpha-SMC, MLCK, I-TAC, EGFR, TIMP-1.
Cell culture. […] Human dermal fibroblasts were pooled from 3 donors, cultured according to standard methods, and plated confluent 24 h before stimulation. Cell culture medium for all systems containing fibroblasts and keratinocytes contained low hydrocortisone. […] Concentrations/amounts of agents added to confluent microtiter plates to build each system: cytokines (IL-1β, 1 ng/ml; TNF-α, 5 ng/ml; IFN-γ, 20 ng/ml; IL-4, 5 ng/ml), activators (SAg, 20 ng/ml; histamine, 10 μM; zymosan, 10 μg/ml; or LPS, 2 ng/ml), growth factors (TGF-β, 5 ng/ml; EGF, bFGF, and PDGF-BB, 10 ng/ml), and PBMC (7.5×10^4 cells/well) or macrophages (3.5×10^4 cells/well).
Experiment [6] relates to Peripheral Blood Mononuclear Cells + Umbilical Vein Endothelial Cells. Description: BioMAP LPS system (TLR4), scoring of readout parameters. The format is cell-based, human. Particulars: LPS (by position); desired change decrease.
From the text: as §1, §2, §3, §4, §5

In experiment [7] the test system is Umbilical Vein Endothelial Cells. The experiment is described as follows: BioMAP 3C system (IL-1β + TNF-α + IFN-γ), scoring of readout parameters. The format is cell-based, human. Conditions: for HLA-DR score: desired change decrease; for uPAR score: desired change increase.
From the text: as §1, §2, §3, §4, §5

Experiment [8] has as its system human primary cells. The experiment is described as follows: Total score for desired parameter modulation over the BioMAP systems of Table 1. The experiment is classed as cell-based. Conditions: penalties not applied.
From the text: as §1
The relative importance of each parameter may be weighted by the screener to select those parameters of greatest interest for a particular application.
as §6
BioMAP Systems are designed to model complex human disease biology in a practical in vitro format. This is achieved by stimulating human primary cells (single cell type or defined mixtures of cell types) such that multiple disease-relevant signaling pathways are simultaneously active. The choice of cell types and stimulations is guided by the knowledge of disease biology and mechanisms. Incorporating appropriate cell types and stimulating signaling pathways relevant to disease states allows association of biological activities detected in BioMAP Systems with disease processes. Drug effects are then recorded by measuring biologically meaningful protein readouts that provide coverage of biological space of interest (e.g., inflammation, tissue remodeling) and allow discrimination between different drug classes tested.
as §2, §3
Readout Parameter Measurements. The levels of readout parameters were measured by ELISA.

The conditions of experiment [9]: PMID 17023731, PMID 8421998; cited from earlier work.

With `COc1cc(/C=C/C(=O)N2CCC=CC2=O)cc(OC)c1OC` [Piperlongumine], the HLA-DR score in [1] and in experiment [7] was 0 throughout. Further, the MMP-1 score in experiment [1], in [3] and in experiment [5] was 0 in each case. Also, the PAI-1 score turned out to be 0 in experiment [1], 0 in [2], 1 in experiment [4] and 1 in experiment [5]. Moreover, the uPA score in experiment [2] came out at 0. For the same compound, the EGFR score in experiment [2] and in experiment [5] was 0 throughout. Further, the TF score in experiment [6] stood at 1. Moreover, in [7], the uPAR score came out at 0. The “Score (Fraction correctly modulated parameters out of 45-58 total)” value in experiment [8] is listed as 0.47.

As for `CC(=O)S[C@@H]1CC2=CC(=O)CC[C@]2(C)[C@H]2CC[C@@]3(C)[C@@H](CC[C@@]34CCC(=O)O4)[C@H]12` [spironolactone], the “Score (Fraction correctly modulated parameters out of 45-58 total)” value in experiment [8] is “high scores”. Besides, the anti-fibrotic activity result in [9] was “known anti-fibrotic activity”.

For `Cc1cc(C2CCCCC2)n(O)c(=O)c1.NCCO` [Ciclopirox Ethanolamine], in experiment [1], the HLA-DR score was 0, the MMP-1 score was found to be 0 and the PAI-1 score is on record as 0. In addition, in experiment [2], the uPA score is listed as 0, the PAI-1 score was 0 and the EGFR score came out at 1. For the same compound, the MMP-1 score in experiment [3] was found to be 0. The compound further yielded a PAI-1 score in [4] of 1. Moreover, in experiment [5], the PAI-1 score is listed as 1, the MMP-1 score was 0 and the EGFR score is given as 0. For the same compound, the TF score in experiment [6] is given as 0. In addition, in experiment [7], the HLA-DR score worked out at 0 and the uPAR score is listed as 0. Also, the “Score (Fraction correctly modulated parameters out of 45-58 total)” value in experiment [8] was 0.31.

As for `Cc1[nH]ccc2c1[nH]c1cc(=O)ccc12` [Harmol], the HLA-DR score in experiment [1] and in experiment [7] was 0 throughout. For the same compound, the MMP-1 score in experiment [1], in experiment [3] and in [5] was 0 throughout. Besides, the PAI-1 score in experiment [1] is 1; in experiment [2] it was 0; in experiment [4], 1; in experiment [5], 1. In addition, in [2], the uPA score turned out to be 0. Moreover, the EGFR score in [2] and in experiment [5] was 0 throughout. In addition, the TF score in [6] was found to be 1. Further, the uPAR score in experiment [7] came to 0. In experiment [8], the “Score (Fraction correctly modulated parameters out of 45-58 total)” value was 0.29.

As to `C=C(NC(=O)C(=C)NC(=O)c1csc(C2=N[C@@H]3c4csc(n4)[C@H]4NC(=O)c5csc(n5)[C@H]([C@](C)(O)[C@@H](C)O)NC(=O)[C@H]5CSC(=N5)/C(=C/C)NC(=O)[C@H]([C@@H](C)O)NC(=O)c5csc(n5)[C@]3(CC2)NC(=O)[C@H](C)NC(=O)C(=C)NC(=O)[C@H](C)NC(=O)[C@H]([C@@H](C)CC)N[C@@H]2C=Cc3c([C@H](C)O)cc(nc3[C@H]2O)C(=O)O[C@@H]4C)n1)C(N)=O` [Thiostrepton], in experiment [1], the HLA-DR score stood at 0, the MMP-1 score stood at 0 and the PAI-1 score turned out to be 0. For the same compound, in experiment [2], the uPA score worked out at 0, the PAI-1 score worked out at 0 and the EGFR score came out at 1. The MMP-1 score in [3] is listed as 0. For the same compound, the PAI-1 score in experiment [4] worked out at 1. Also, in experiment [5], the PAI-1 score is listed as 1, the MMP-1 score turned out to be 0 and the EGFR score is given as 0. Further, in [6], the TF score is listed as 1. Besides, in experiment [7], the HLA-DR score is on record as 0 and the uPAR score turned out to be 0. Moreover, the “Score (Fraction correctly modulated parameters out of 45-58 total)” value in experiment [8] was 0.42.
